Assay [1] has as its target T1, Her3 (Homo sapiens, UniProt P21860). Nature of the assay: LanthaScreen Eu kinase binding assay. On the set-up: purchased Life Technologies. To be noted: read-out: Binding affinities (IC50). The protocol: Lantha screening is performed by following the method reported in Nature Chemical Biology, 10, 1006-1012 (2014).
Binding affinities (IC 50) of representative compounds were measured by the Life Technologies LanthaScreen Eu kinase binding assay, which was previously reported (Xie T. et al., Nat. Chew. Biol. 2014, 10, 1006-1012).
Lantha screening was performed by following the method reported in Nature Chemical Biology, 10, 1006-1012 (2014).
Background: Time-resolved FRET reads energy transfer from a long-lived donor to a nearby acceptor.

For assay [2], the target named is T1, Her3. Nature of the assay: Her3 protein degradation by Western blot (immunoblotting). The format is cell-based. To be noted: PC9-GR4 or Ovacar 8 cell lines, 2 μM, 4 hours and 8 hours. The arrangement: endogenous in cells; host or cells: PC9-GR4; Ovacar 8; key: +: Her3 protein was degraded; −: Her3 protein was not degraded. On the procedure: Cells are seeded at the desired density the day before treatment starts with bifunctional compounds of the application at various concentration. After 4 to 12 hrs, cells are washed with buffer and lysed. The lysates are centrifuged and the supernatant is collected. Protein concentrations are measured using a protein assay kit, such as the BCA protein assay kit, Pierce, catalog number 23225) and normalized. Samples are run on a SDS-PAGE gel, and transferred to a PVDF membrane. The PVDF membrane is probed with the appropriate antibody.
Her3 protein degradation was assessed via Western blots after treatment of PC9-GR4 cell lines or Ovacar 8 cell lines with 2 μM of representative compounds for 4 hours and 8 hours.
Cells were seeded at a density of 4×10̂5 per 6 cm plate the day before treatment started with representative compounds of the application at the indicated concentration. After 4 to 12 hrs, cells were washed with phosphate-buffered saline. Lysis buffer included 50 mM Tris-HCl, […], 150 mM NaCl, 1% NP-40, and 5 mM EDTA, pH 7.4+/−0.2, Roche PhosSTOP phosphatase inhibitor cocktail tablets and Roche Complete Protease inhibitor cocktail tablets. Cell lysis was accomplished by addition of lysis buffer for 5-10 min on ice. Lysates were centrifuged in a microcentrifuge at 14,000 r.p.m. for 15 min at 4° C., and the supernatant was collected. Protein concentrations were measured using BCA protein assay kit (Pierce, catalog number 23225) and normalized. Samples were run on a 4%-12% SDS-PAGE gel at 120 V. After transfer, the PVDF membrane was probed with anti-Her3 antibody, Santa Cruz, catalog number sc-285 at 1:1000 dilution.
In general terms: In western blotting, separated proteins are transferred to a membrane and probed.

Assay [3] deals with 826-GR6. The assay is described as follows: Anti-proliferation assay (MTS cell viability). The format is cell-based. To be noted: 72 h, 826-GR6 cells, 3 d incubation, read-out: Cell lines (EC50, μM) 826-GR6. The protocol:
Cells are seeded and incubated for 3 d after bifunctional compounds of the application are added. Cell viability is measured via MTS Assay. This assay uses a colorimetric method to determine the number of viable cells based on the bioreduction of MTS by cells to a formazan product that is soluble in cell culture medium and can be detected spectrophotometrically. In a typical experiment, the supernatant is removed and replaced by 100 μl of RPMI media supplemented with MTS reagent and PMS. The plates are measured with Perkin Elmer EnVision after reaching an optical density (OD) of 1.0-2.0 at a wavelength of 490 nm. The cell numbers are normalized compared to DMSO control, and the EC50 values are calculated using GraphPad Prism.
Five cell lines, PC9-GR4, 826-GR6, Ovacar 8, A549, and Ovacar 5 were grown and treated with representative compounds. Viability of the cells after the treatment was assessed by MTS assay.
The anti-proliferation assay was carried out using 96-well clear bottom plates. […] Cell viability was measured via MTS Assay. This assay uses a colorimetric method to determine the number of viable cells based on the bioreduction of MTS by cells to a formazan product that is soluble in cell culture medium and can be detected spectrophotometrically. […] The plates were measured with Perkin Elmer EnVision after reaching an optical density (OD) of 1.0-2.0 at a wavelength of 490 nm. […]

Bounds are passed on as bounds.

T1 sequence (P21860 20-1342): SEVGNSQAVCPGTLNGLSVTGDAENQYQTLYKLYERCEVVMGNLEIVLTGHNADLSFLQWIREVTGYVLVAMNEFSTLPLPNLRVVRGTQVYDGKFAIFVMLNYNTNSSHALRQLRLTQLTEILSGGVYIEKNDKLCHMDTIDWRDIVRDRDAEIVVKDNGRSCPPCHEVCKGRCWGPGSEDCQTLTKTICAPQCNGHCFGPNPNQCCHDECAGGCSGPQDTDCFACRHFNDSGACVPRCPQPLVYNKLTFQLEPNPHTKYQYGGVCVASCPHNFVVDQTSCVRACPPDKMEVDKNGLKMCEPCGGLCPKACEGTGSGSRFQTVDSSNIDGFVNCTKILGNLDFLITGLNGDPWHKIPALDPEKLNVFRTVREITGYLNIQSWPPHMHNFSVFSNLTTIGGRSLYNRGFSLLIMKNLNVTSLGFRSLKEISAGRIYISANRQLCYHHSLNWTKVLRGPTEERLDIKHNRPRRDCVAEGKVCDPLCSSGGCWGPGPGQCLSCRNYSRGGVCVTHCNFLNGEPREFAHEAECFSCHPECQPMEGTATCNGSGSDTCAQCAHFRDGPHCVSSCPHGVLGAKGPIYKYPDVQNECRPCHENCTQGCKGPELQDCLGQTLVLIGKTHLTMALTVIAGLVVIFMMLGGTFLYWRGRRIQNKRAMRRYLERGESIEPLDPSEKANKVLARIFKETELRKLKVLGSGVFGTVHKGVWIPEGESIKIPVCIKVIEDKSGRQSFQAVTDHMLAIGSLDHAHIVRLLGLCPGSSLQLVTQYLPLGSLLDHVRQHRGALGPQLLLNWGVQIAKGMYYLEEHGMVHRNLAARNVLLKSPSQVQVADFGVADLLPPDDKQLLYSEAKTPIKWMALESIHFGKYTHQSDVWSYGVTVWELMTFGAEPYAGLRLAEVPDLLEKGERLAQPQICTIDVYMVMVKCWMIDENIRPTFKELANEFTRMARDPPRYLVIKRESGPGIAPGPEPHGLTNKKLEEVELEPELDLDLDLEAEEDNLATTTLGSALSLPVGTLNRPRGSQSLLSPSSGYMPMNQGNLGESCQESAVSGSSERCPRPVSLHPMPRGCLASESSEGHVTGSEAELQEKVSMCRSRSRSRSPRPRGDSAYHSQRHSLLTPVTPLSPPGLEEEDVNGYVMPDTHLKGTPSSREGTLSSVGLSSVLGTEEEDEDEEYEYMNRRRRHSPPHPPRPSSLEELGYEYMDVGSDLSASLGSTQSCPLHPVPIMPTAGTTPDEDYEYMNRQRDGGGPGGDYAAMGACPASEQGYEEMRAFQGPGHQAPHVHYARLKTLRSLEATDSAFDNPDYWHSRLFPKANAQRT

For `COc1cc(Nc2c(C#N)cnc3cc(OCCCN4CCN(CC(=O)NCCOCCOCCOCCNC(=O)COc5cccc6c5C(=O)N(C5CCC(=O)NC5=O)C6=O)CC4)c(OC)cc23)c(Cl)cc1Cl` (stereo not drawn) [Compound CY1], in assay [1], the IC50 (usually the point on the concentration scale where inhibition reaches its midpoint) is less than 10 nM. For the same molecule, the Her3 degradation result in assay [2] was “−”.

In the case of `COc1cc(Nc2c(C#N)cnc3cc(OCCCN4CCN(C(=O)CCCNC(=O)COc5cccc6c5C(=O)N(C5CCC(=O)NC5=O)C6=O)CC4)c(OC)cc23)c(Cl)cc1Cl` (stereo not drawn) [Compound CY2], the IC50 in assay [1] is less than 10 nM. For the same molecule, the Her3 degradation entry in assay [2] was “−”.

`CCOc1cc2ncc(C#N)c(Nc3ccc(OCc4ccccn4)c(Cl)c3)c2cc1NC(=O)CCOCCOCCNc1cccc2c1C(=O)N(C1CCC(=O)NC1=O)C2=O` (stereo not drawn) [Compound CY3]: the Her3 degradation result in assay [2] is reported as “−”.

With `CCOc1cc2ncc(C#N)c(Nc3ccc(OCc4ccccn4)c(Cl)c3)c2cc1NC(=O)CCOCCOCCOCCNc1cccc2c1C(=O)N(C1CCC(=O)NC1=O)C2=O` (stereo not drawn) [Compound CY4], the Her3 degradation entry in assay [2] is “−”.

Take `CCOc1cc2ncc(C#N)c(Nc3ccc(OCc4ccccn4)c(Cl)c3)c2cc1NC(=O)CCOCCOCCOCCOCCOCCNc1cccc2c1C(=O)N(C1CCC(=O)NC1=O)C2=O` (stereo not drawn) [Compound CY5]: the Her3 degradation result in assay [2] is reported as “−”.

For the molecule `COc1cc(Nc2c(C#N)cnc3cc(OCCCN4CCN(CCOCCOCCNc5cccc6c5C(=O)N(C5CCC(=O)NC5=O)C6=O)CC4)c(OC)cc23)c(Cl)cc1Cl` (stereo not drawn) [Compound CY6], the IC50 in assay [1] is less than 10 nM. In addition, the Her3 degradation entry in assay [2] was “−”. Moreover, the EC50 (as a rule, the concentration needed to bring the measured effect to its halfway point) in assay [3] lay within 5 to 15 µM.

Consider `COc1cc(Nc2c(C#N)cnc3cc(OCCCN4CCN(CCOCCOCCOCCNc5cccc6c5C(=O)N(C5CCC(=O)NC5=O)C6=O)CC4)c(OC)cc23)c(Cl)cc1Cl` (stereo not drawn) [Compound CY7], for which the IC50 in assay [1] was less than 10 nM. In addition, the Her3 degradation entry in assay [2] is given as “−”. The EC50 in assay [3] lay within 5 to 15 µM.

Regarding `COc1cc(Nc2c(C#N)cnc3cc(OCCCOCCOCCOCCNc4cccc5c4C(=O)N(C4CCC(=O)NC4=O)C5=O)c(OC)cc23)c(Cl)cc1Cl` (stereo not drawn) [Compound CY8], the Her3 degradation entry in assay [2] was “−”.

For `COc1cc(Nc2c(C#N)cnc3cc(OCCCOCCOCCOCCOCCNc4cccc5c4C(=O)N(C4CCC(=O)NC4=O)C5=O)c(OC)cc23)c(Cl)cc1Cl` (stereo not drawn) [Compound CY9], the half-maximal inhibitory concentration (IC50) in assay [1] is 10 to 100 nM. Further, the Her3 degradation result in assay [2] is reported as “+”.

Consider `COc1cc2ncnc(Nc3cccc(Cl)c3F)c2cc1OC1CCN(CC(=O)NCCOCCOCCNc2cccc3c2C(=O)N(C2CCC(=O)NC2=O)C3=O)CC1` (stereo not drawn) [Compound CY10], for which, in assay [2], the Her3 degradation entry is “−”.

For the molecule `COc1cc2ncnc(Nc3cccc(Cl)c3F)c2cc1OC1CCN(CC(=O)NCCOCCOCCOCCNc2cccc3c2C(=O)N(C2CCC(=O)NC2=O)C3=O)CC1` (stereo not drawn) [Compound CY11], the Her3 degradation entry in assay [2] was “−”.

These data come from US20190016703A1, “BIFUNCTIONAL COMPOUNDS FOR HER3 DEGRADATION AND METHODS OF USE” (Dana-Farber Cancer Institute, Inc., priority 2015, published 2019).
